Where a name gives a salt, the structure may show the parent alone.
Experiments:
[1] = Formation of phenylephrine-maleate adducts as a function of pH; type: physicochemical; details: combined with chlorpheniramine maleate
Description: Phenylephrine may be unstable in the presence of active ingredients which are the soluble salts of maleic acid. Phenylephrine-Maleate adducts form when phenylephrine hydrochloride is combined with chlorpheniramine maleate in solution and in solid dosage forms. This is due to the presence of phenylephrine with maleic acid. It was discovered that a pH below 6.0 yields low levels of one type of phenylephrine-maleate adduct (degradant #1) and it was also discovered that a pH above 4.5 yields low levels of a second type of phenylephrine-maleate adduct (degradant #2).

[2] = Stability of phenylephrine in solid formulations after spray drying an acidic solution; type: physicochemical
Description: Phenylephrine is known to experience physical and chemical degradation. Degradation of phenylephrine may be caused by a variety of factors including, but not limited to, the presence of oxygen, moisture, reducible sugars, bases, high temperatures, etc. […] Degradation of phenylephrine may be noticed by a change in color, e.g. changing from a whitish color to a darker, blackish color. Additionally, phenylephrine may degrade chemically as recorded by degradation peaks during analysis, such as an HPLC analysis. It is desirable to prevent, reduce or minimize the degradation of phenylephrine. An embodiment of the present invention provides a stable pharmaceutical composition having phenylephrine in a therapeutically effective amount wherein the phenylephrine has been spray dried. An additional embodiment of the present invention provides a stable composition of phenylephrine in a therapeutically effective amount wherein the phenylephrine has been layered or sprayed onto a substrate.

SMILES | levels of second type of phenylephrine-maleate adduct (degradant #2) ([1]; pH above 4.5) | levels of phenylephrine-maleate adduct (degradant #1) ([1]; pH below 6.0) | stability of phenylephrine in solid formulations [2]
CNC[C@H](O)c1cccc(O)c1 [phenylephrine hydrochloride] | low levels | low levels | 
CNC[C@H](O)c1cccc(O)c1 [phenylephrine] |  |  | increases the stability

Source: patent US8323695B2, “Method for stabilizing phenylephrine” (McNeil-PPC, Inc., priority 2007, dated 2012)
